Measurements published in patent US8003660B2, “Modulators of muscarinic receptors” (Vertex Pharmaceuticals Incorporated, priority 2006, dated 2011).

Assays:
Format in all cases: cell-based
M1 muscarinic receptor = target: T1, M1 muscarinic receptor (Homo sapiens, UniProt P11229); assay: Functional mobilization of intracellular calcium (FLIPR) in CHO cells expressing M1; settings: for M1 Activity: CHO cells expressing M1, FLIPR calcium assay; for Emax: CHO, 100% efficacy = maximum response obtained with the Carbachol control
T1 construct: expressed in transfected cells; host or cells: CHO (M1-CHO)
T1 sequence (P11229 1-460): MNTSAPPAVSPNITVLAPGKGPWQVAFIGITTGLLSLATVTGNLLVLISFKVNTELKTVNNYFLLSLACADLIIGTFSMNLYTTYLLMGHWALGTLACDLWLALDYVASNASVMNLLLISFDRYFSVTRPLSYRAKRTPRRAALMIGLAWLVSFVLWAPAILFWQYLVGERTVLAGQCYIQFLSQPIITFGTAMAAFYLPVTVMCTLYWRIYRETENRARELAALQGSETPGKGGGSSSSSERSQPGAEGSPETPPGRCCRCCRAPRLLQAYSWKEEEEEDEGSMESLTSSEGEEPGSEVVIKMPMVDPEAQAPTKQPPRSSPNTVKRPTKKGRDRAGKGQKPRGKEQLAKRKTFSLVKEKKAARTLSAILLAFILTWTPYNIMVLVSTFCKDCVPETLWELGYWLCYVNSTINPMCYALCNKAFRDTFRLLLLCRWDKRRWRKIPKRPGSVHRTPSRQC
Outline: (§1)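 Calcium flux is read on FLIPR over 60 sec at 488/540 nm in muscarinic-receptor CHO lines. Antagonist mode adds carbachol at EC80 after 15 min compound preincubation or with simultaneous co-application. Agonist mode adds compound alone. Cells carry Fluo-3 or Calcium 3 dye in probenecid-containing pH 7.4 buffer, 0.5% DMSO final.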

M2 muscarinic receptor = target: T2, M2 muscarinic receptor (Homo sapiens, UniProt P08172); assay: Functional mobilization of intracellular calcium (FLIPR) in CHO cells expressing M2; settings: for M2 Activity: CHO cells expressing M2, FLIPR calcium assay; for Emax: CHO, 100% efficacy = maximum response obtained with the Carbachol control
T2 construct: expressed in transfected cells; host or cells: CHO (M2-CHO)
T2 sequence (P08172 1-466): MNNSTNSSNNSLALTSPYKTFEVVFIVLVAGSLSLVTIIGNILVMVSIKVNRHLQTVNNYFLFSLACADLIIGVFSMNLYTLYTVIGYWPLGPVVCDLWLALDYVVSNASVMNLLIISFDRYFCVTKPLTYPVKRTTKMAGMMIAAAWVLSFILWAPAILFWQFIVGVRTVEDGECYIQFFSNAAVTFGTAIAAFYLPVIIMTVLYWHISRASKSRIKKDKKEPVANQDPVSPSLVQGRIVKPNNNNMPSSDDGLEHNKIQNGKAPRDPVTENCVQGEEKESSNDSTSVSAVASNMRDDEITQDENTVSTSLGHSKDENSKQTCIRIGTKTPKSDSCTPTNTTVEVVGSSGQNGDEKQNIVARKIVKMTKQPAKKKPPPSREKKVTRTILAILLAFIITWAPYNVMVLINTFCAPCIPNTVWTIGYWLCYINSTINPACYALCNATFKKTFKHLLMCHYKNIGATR
Outline: as §1

M3 muscarinic receptor = target: T3, M3 muscarinic receptor (Homo sapiens, UniProt P20309); assay: Functional mobilization of intracellular calcium (FLIPR) in CHO cells expressing M3; settings: for M3 Activity: CHO cells expressing M3, FLIPR calcium assay; for Emax: CHO, 100% efficacy = maximum response obtained with the Carbachol control
T3 construct: expressed in transfected cells; host or cells: CHO (M3-CHO)
T3 sequence (P20309 whole entry): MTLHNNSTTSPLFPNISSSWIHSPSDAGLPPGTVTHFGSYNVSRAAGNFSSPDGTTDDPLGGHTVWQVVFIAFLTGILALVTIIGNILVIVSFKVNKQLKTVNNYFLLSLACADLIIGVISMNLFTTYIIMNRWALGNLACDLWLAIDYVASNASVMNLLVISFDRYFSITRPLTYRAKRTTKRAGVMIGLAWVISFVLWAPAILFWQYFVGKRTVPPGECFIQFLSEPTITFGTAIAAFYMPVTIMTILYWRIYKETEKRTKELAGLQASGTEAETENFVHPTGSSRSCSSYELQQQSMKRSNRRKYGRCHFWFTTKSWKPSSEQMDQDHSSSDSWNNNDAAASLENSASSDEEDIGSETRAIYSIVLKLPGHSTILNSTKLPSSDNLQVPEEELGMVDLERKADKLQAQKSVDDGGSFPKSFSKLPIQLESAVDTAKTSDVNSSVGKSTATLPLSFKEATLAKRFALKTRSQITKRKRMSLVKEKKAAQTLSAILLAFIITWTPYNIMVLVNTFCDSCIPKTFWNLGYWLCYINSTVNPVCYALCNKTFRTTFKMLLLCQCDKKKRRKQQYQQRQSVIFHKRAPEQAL
Outline: as §1

M4 muscarinic receptor = target: T4, M4 muscarinic receptor (Homo sapiens, UniProt P08173); assay: Functional mobilization of intracellular calcium (FLIPR) in CHO cells expressing M4; settings: for M4 Activity: CHO cells expressing M4, FLIPR calcium assay; for Emax: CHO, 100% efficacy = maximum response obtained with the Carbachol control
T4 construct: expressed in transfected cells; host or cells: CHO (M4-CHO)
T4 sequence (P08173 1-479): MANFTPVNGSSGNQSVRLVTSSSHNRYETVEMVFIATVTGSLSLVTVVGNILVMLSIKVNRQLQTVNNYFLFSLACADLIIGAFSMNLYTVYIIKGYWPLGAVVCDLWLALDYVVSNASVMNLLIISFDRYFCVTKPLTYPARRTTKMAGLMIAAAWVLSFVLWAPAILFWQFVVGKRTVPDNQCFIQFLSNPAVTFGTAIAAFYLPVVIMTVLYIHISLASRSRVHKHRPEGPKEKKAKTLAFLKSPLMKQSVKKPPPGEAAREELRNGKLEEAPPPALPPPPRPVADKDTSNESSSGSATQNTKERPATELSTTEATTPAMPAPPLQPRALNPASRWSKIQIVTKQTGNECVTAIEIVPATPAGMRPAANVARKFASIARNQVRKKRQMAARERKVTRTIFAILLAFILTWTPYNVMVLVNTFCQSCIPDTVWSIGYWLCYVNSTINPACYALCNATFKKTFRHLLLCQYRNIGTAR
Outline: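 Recombinant CHO cells loaded with Fluo-3 AM or Calcium 3 dye in pH 7.4 buffer containing 1 mM probenecid, with 0.5% final DMSO. For agonism, compound is added directly. For inhibition, it is preincubated 15 min, or co-applied, before carbachol at EC80. FLIPR fluorescence (ex 488, em 540 nm) is recorded for 60 s.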

With `CCN(C(=O)CCNC(C)=O)[C@H]1CCC2(CCN(CCC(C)(C)C)CC2)c2ccccc21` [compound 187] as the compound, how does the “M1 Activity” value (M1 muscarinic receptor) read?
The value was “+++ (activity was measured to be less than 2.0 μM)”.

And the Emax (M1 muscarinic receptor)?
Its Emax is 25 to 100%.

And the “M2 Activity” value (M2 muscarinic receptor)?
The value was “+ (activity was measured to be greater than 5.0 μM)”.

And the Emax (M2 muscarinic receptor)?
The Emax was < 25%.

And the “M3 Activity” value (M3 muscarinic receptor)?
Its value is “+ (activity was measured to be greater than 5.0 μM)”.

And the Emax (M3 muscarinic receptor)?
The Emax was < 25%.

What about the “M4 Activity” value (M4 muscarinic receptor) of the same compound?
Its value is “+++ (activity was measured to be less than 2.0 μM)”.

What about the Emax (M4 muscarinic receptor) of the same compound?
The Emax was 25 to 100%.

Which “M1 Activity” value (M1 muscarinic receptor) does the source give for `CC(C)(C)CCN1CCC2(CC[C@@H](NC(=O)C3CCOCC3)c3ccccc32)CC1` [compound 188] here?
The value was “+ (activity was measured to be greater than 5.0 μM)”.

And the Emax (M1 muscarinic receptor)?
Its Emax is < 25%.

And the “M2 Activity” value (M2 muscarinic receptor)?
The value was “+ (activity was measured to be greater than 5.0 μM)”.

What about the Emax (M2 muscarinic receptor) of the same compound?
Its Emax is < 25%.

What about the “M3 Activity” value (M3 muscarinic receptor) of the same compound?
The value was “+ (activity was measured to be greater than 5.0 μM)”.

What about the Emax (M3 muscarinic receptor) of the same compound?
Its Emax is < 25%.

What about the “M4 Activity” value (M4 muscarinic receptor) of the same compound?
Its value is “+++ (activity was measured to be less than 2.0 μM)”.

And the Emax (M4 muscarinic receptor)?
The Emax was 25 to 100%.

Which results are given for `CC(=O)N[C@@H]1CCC2(CCN(CCC(C)(C)C)CC2)c2cc(F)ccc21` [compound 189]?
M1 Activity (M1 muscarinic receptor): +++ (activity was measured to be less than 2.0 μM); Emax (M1 muscarinic receptor): 25 to 100%; M2 Activity (M2 muscarinic receptor): +++ (activity was measured to be less than 2.0 μM); Emax (M2 muscarinic receptor): < 25%; M3 Activity (M3 muscarinic receptor): + (activity was measured to be greater than 5.0 μM); Emax (M3 muscarinic receptor): < 25%; M4 Activity (M4 muscarinic receptor): +++ (activity was measured to be less than 2.0 μM); Emax (M4 muscarinic receptor): 25 to 100%

`CC(=O)N1CCC(C(=O)N[C@H]2CCC3(CCN(CCC(C)(C)C)CC3)c3ccccc32)CC1` [compound 191] was tested. Which “M1 Activity” value (M1 muscarinic receptor) did it give?
Its value is “+++ (activity was measured to be less than 2.0 μM)”.

What about the Emax (M1 muscarinic receptor) of the same compound?
The Emax was 25 to 100%.

And the “M2 Activity” value (M2 muscarinic receptor)?
Its value is “+ (activity was measured to be greater than 5.0 μM)”.

What about the Emax (M2 muscarinic receptor) of the same compound?
The Emax was < 25%.

And the “M3 Activity” value (M3 muscarinic receptor)?
The value was “+ (activity was measured to be greater than 5.0 μM)”.

And the Emax (M3 muscarinic receptor)?
Its Emax is < 25%.

What about the “M4 Activity” value (M4 muscarinic receptor) of the same compound?
Its value is “+++ (activity was measured to be less than 2.0 μM)”.

What about the Emax (M4 muscarinic receptor) of the same compound?
Its Emax is 25 to 100%.

With `CC(C)(C)CCN1CCC2(CC[C@@H](NC(=O)[C@H]3CCC(=O)N3)c3ccc(F)cc32)CC1` [compound 192] as the compound, how does the “M1 Activity” value (M1 muscarinic receptor) read?
The value was “+ (activity was measured to be greater than 5.0 μM)”.

And the Emax (M1 muscarinic receptor)?
Its Emax is < 25%.

What about the “M2 Activity” value (M2 muscarinic receptor) of the same compound?
The value was “+ (activity was measured to be greater than 5.0 μM)”.

And the Emax (M2 muscarinic receptor)?
Its Emax is < 25%.

What about the “M3 Activity” value (M3 muscarinic receptor) of the same compound?
The value was “+ (activity was measured to be greater than 5.0 μM)”.

What about the Emax (M3 muscarinic receptor) of the same compound?
Its Emax is < 25%.

What about the “M4 Activity” value (M4 muscarinic receptor) of the same compound?
The value was “+++ (activity was measured to be less than 2.0 μM)”.

And the Emax (M4 muscarinic receptor)?
Its Emax is 25 to 100%.

How did the “M1 Activity” value (M1 muscarinic receptor) turn out when `Cn1nccc1C(=O)N[C@H]1CCC2(CCN(CCC(C)(C)C)CC2)c2ccccc21` [compound 193] was run?
Its value is “+++ (activity was measured to be less than 2.0 μM)”.

What about the Emax (M1 muscarinic receptor) of the same compound?
The Emax was 25 to 100%.

And the “M2 Activity” value (M2 muscarinic receptor)?
Its value is “+ (activity was measured to be greater than 5.0 μM)”.

What about the Emax (M2 muscarinic receptor) of the same compound?
The Emax was < 25%.

And the “M3 Activity” value (M3 muscarinic receptor)?
The value was “+ (activity was measured to be greater than 5.0 μM)”.

And the Emax (M3 muscarinic receptor)?
Its Emax is < 25%.

And the “M4 Activity” value (M4 muscarinic receptor)?
Its value is “+++ (activity was measured to be less than 2.0 μM)”.

What about the Emax (M4 muscarinic receptor) of the same compound?
Its Emax is 25 to 100%.

How did the “M1 Activity” value (M1 muscarinic receptor) turn out when `CC(=O)N1CCC[C@H]1C(=O)N[C@H]1CCC2(CCN(CCC(C)(C)C)CC2)c2ccccc21` [compound 194] was run?
Its value is “+++ (activity was measured to be less than 2.0 μM)”.

And the Emax (M1 muscarinic receptor)?
The Emax was 25 to 100%.

What about the “M2 Activity” value (M2 muscarinic receptor) of the same compound?
The value was “+ (activity was measured to be greater than 5.0 μM)”.

What about the Emax (M2 muscarinic receptor) of the same compound?
The Emax was < 25%.

What about the “M3 Activity” value (M3 muscarinic receptor) of the same compound?
Its value is “+ (activity was measured to be greater than 5.0 μM)”.

What about the Emax (M3 muscarinic receptor) of the same compound?
Its Emax is < 25%.

What about the “M4 Activity” value (M4 muscarinic receptor) of the same compound?
The value was “+++ (activity was measured to be less than 2.0 μM)”.

And the Emax (M4 muscarinic receptor)?
Its Emax is 25 to 100%.

`CC(C)(C)CCN1CCC2(CC[C@H](NC(=O)Cc3cccnc3)c3ccccc32)CC1` [compound 195] was tested. Which “M1 Activity” value (M1 muscarinic receptor) did it give?
Its value is “+++ (activity was measured to be less than 2.0 μM)”.

What about the Emax (M1 muscarinic receptor) of the same compound?
The Emax was 25 to 100%.

What about the “M2 Activity” value (M2 muscarinic receptor) of the same compound?
The value was “+++ (activity was measured to be less than 2.0 μM)”.

What about the Emax (M2 muscarinic receptor) of the same compound?
The Emax was 25 to 100%.

And the “M3 Activity” value (M3 muscarinic receptor)?
The value was “+ (activity was measured to be greater than 5.0 μM)”.

And the Emax (M3 muscarinic receptor)?
The Emax was < 25%.

What about the “M4 Activity” value (M4 muscarinic receptor) of the same compound?
Its value is “+++ (activity was measured to be less than 2.0 μM)”.

What about the Emax (M4 muscarinic receptor) of the same compound?
Its Emax is 25 to 100%.
